The text below walks through data of ChEMBL document CHEMBL4732068, “The discovery of novel antitrypanosomal 4-phenyl-6-(pyridin-3-yl)pyrimidines” (Eur J Med Chem, 2021).

One data set deals with T1, Cytochrome P450 1A2 (Homo sapiens, UniProt P05177).
T1 sequence (P05177 whole entry): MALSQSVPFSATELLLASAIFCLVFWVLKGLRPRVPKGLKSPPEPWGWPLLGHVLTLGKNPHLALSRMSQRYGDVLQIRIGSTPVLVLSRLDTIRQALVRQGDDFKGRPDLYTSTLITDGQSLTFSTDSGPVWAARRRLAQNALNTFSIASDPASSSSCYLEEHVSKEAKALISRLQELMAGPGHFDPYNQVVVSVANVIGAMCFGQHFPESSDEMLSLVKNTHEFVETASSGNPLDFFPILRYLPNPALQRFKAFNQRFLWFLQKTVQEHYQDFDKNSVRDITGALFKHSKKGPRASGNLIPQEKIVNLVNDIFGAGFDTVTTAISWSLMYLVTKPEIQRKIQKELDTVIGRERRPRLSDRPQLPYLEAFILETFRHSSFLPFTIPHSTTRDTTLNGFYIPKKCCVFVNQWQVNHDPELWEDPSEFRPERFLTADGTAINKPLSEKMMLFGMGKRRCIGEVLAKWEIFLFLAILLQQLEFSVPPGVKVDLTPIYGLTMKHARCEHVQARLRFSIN
Nature of the data set: Inhibition of CYP1A2 in human liver microsomes by luminescence based P450-[…] assay. In kind it is ADME.

In another data set the target is Cytochrome P450 2C9 (Homo sapiens, UniProt P11712). Nature of the data set: Inhibition of CYP2C9 in human liver microsomes by luminescence based P450-[…] assay.
For another data set, the target named is Cytochrome P450 2C19 (Homo sapiens, UniProt P33261). Description: Inhibition of CYP2C19 in human liver microsomes by luminescence based P450-[…] assay. It is filed as ADME.
Data set [1] has as its target Histone deacetylase 1 (Homo sapiens) (UniProt Q13547). Nature of the data set: Inhibition of recombinant human HDAC1 by fluorescence based microplate reader analysis.
Data set [2] has as its target Histone deacetylase 3 (Homo sapiens) (UniProt O15379). Nature of the data set: Inhibition of recombinant human HDAC3 by fluorescence based microplate reader analysis.
For data set [3], the target named is T2, Protein deacetylase HDAC6 (Homo sapiens) (UniProt Q9UBN7).
T2 sequence (whole entry): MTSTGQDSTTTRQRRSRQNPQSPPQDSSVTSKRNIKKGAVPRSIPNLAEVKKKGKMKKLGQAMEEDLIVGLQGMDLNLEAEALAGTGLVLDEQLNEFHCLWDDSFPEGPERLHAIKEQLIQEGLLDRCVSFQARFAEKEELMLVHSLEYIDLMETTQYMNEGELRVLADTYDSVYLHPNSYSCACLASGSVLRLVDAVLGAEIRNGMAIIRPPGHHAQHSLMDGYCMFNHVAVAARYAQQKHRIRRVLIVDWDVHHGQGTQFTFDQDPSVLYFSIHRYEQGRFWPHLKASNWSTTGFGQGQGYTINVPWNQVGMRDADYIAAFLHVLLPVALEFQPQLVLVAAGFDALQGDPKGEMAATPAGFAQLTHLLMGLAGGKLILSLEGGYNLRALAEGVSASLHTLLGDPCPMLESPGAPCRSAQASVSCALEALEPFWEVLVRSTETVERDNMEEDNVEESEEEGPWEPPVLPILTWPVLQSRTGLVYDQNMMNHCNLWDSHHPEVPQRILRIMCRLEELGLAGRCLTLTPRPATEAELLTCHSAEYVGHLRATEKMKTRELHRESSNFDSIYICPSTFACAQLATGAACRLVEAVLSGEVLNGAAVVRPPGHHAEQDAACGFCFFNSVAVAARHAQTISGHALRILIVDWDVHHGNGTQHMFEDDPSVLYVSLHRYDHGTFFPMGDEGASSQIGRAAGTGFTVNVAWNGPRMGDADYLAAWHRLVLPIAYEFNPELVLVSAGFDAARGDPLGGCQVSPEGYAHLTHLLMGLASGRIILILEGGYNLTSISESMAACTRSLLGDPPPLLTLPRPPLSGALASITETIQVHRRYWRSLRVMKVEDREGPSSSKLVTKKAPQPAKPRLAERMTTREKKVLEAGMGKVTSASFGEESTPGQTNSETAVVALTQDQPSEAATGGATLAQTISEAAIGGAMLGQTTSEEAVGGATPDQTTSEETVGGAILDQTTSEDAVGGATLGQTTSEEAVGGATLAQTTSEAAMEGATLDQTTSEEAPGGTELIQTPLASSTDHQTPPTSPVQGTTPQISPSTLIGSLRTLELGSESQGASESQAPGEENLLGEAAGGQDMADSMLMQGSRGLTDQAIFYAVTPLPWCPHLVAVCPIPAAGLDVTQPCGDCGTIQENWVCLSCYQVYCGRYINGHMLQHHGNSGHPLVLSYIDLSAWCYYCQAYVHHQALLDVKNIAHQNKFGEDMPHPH
Description: Inhibition of recombinant human HDAC6 by fluorescence based microplate reader analysis.

SMILES strings stand for the structures. Calls of active or inactive are those of the source. The calls are words filed in the database; no cut-off is given here.

Sequence of Cytochrome P450 2C9 (P11712 whole entry): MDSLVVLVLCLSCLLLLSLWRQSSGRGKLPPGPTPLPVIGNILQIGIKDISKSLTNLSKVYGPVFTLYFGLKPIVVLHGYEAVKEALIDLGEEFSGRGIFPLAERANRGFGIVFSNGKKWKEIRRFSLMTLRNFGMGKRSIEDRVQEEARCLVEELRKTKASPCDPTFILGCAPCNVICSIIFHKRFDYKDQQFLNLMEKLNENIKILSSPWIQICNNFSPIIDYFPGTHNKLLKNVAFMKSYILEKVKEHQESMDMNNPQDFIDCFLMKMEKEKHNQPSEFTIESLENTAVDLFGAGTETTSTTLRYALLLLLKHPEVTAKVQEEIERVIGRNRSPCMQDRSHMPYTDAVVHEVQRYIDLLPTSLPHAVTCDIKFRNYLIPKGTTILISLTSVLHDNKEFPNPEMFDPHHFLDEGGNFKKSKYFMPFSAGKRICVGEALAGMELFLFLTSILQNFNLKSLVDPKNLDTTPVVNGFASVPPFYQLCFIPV
Sequence of Histone deacetylase 3 (Homo sapiens) (O15379 whole entry): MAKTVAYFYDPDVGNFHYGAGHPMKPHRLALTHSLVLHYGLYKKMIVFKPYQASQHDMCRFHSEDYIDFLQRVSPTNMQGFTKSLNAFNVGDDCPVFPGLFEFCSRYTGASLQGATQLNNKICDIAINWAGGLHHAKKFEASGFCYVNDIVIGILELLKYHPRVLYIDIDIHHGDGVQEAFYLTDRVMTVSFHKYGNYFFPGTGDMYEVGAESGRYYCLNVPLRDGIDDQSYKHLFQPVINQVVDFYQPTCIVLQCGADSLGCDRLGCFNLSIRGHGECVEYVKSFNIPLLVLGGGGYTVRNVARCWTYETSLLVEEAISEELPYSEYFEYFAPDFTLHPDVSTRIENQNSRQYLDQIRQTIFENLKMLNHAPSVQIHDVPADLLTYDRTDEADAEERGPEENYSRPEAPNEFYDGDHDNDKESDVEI
Sequence of Cytochrome P450 2C19 (P33261 whole entry): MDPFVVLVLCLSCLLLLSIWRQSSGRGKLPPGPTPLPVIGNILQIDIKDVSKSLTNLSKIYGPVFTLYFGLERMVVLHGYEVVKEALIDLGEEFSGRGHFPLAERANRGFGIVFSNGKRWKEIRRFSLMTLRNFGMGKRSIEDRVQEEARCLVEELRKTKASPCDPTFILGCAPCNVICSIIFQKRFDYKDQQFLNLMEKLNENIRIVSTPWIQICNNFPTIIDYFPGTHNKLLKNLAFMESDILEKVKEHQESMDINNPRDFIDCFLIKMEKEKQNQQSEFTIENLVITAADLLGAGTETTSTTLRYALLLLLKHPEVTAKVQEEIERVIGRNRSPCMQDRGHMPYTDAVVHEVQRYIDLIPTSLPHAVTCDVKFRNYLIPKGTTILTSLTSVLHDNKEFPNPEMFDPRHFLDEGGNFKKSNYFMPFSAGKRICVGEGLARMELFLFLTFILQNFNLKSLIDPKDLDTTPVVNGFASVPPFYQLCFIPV
Sequence of Histone deacetylase 1 (Homo sapiens) (Q13547 whole entry): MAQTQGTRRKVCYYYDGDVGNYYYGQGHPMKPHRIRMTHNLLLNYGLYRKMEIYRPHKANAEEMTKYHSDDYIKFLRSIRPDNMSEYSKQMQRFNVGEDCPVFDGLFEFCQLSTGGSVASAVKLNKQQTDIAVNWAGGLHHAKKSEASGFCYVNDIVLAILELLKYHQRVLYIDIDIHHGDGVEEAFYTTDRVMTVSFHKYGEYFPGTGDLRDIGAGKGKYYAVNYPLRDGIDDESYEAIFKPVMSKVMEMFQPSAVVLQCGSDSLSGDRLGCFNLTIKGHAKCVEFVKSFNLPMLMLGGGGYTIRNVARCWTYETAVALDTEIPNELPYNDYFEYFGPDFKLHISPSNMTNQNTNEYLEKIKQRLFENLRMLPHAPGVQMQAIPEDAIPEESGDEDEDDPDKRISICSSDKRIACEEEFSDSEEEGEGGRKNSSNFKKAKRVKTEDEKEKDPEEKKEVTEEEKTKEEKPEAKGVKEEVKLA

On to `COc1ccccc1-c1cc(-c2cccnc2)nc(N)n1`, for which the “inhibition (INH)” value at Cytochrome P450 1A2, against Cytochrome P450 2C9 and on Cytochrome P450 2C19 was “Active” each time. For the same compound, the inhibition result in data set [1], in data set [2] and in data set [3] was “inactive” each time.
